Test results reported in ChEMBL document CHEMBL1125017, “Potent anticonflict activity and lessening of memory impairment with a series of novel [1]benzothieno[2,3-c]pyridines and 1,2,3,4-tetrahydro[1]benzothieno[2,3-c]pyridines” (J Med Chem, 1990).

Legend:
Rattus norvegicus [1] = assay: No of shocks of 5 min was reported after oral administration of a dose of 20 mg/kg in 10 rats; assay type: functional
Rattus norvegicus [2] = assay: No of shocks of 5 min was reported after oral administration of a dose of 40 mg/kg in 9 rats; assay type: functional
Rattus norvegicus [3] = assay: No. rats showing anticonflict activity after oral administration of a dose of 20 mg/kg; Number of rats which received shocks more than twice vs shocks received in control rats to that of number of rats tested 6/10; assay type: functional
Rattus norvegicus [4] = assay: Anticonflict activity measured in male wistar rats; number of shocks received in 5 min at an intravenous dose of 10 mg/kg.; assay type: functional
Mus musculus [5] = assay: Latency step was determined after oral administration of a dose of 40 mg/kg in 8 mice; assay type: functional
[6] = target: GABA-A receptor; anion channel; assay: Inhibition of [3H]flunitrazepam binding to GABA-A Benzodiazepine receptor of Wistar rat cerebral cortex; assay type: tissue-based
Mus musculus [7] = assay: Latency step was determined after oral administration of a dose of 5 mg/kg in 8 mice; assay type: functional
Mus musculus [8] = assay: Latency step was determined after oral administration of a dose of 20 mg/kg in 8 mice; assay type: functional
Rattus norvegicus [9] = assay: No of shocks of 5 min was reported after oral administration of a dose of 5 mg/kg in 10 rats; assay type: functional
Mus musculus [10] = assay: […] activity after oral administration of a dose of 40 mg/kg; Number of mice which prolonged latency more than twice the duration of mice administered Scopolamine singly/number of mice tested 6/8; assay type: functional
Mus musculus [11] = assay: Lessening of memory impairment measured in mice; time of latency in seconds at an intravenous dose of 10 mg/kg.; assay type: functional
Mus musculus [12] = assay: Number of mice showing anti-amnesic activity after oral administration of a dose of 5 mg/kg; Number of mice which prolonged latency more than twice the duration of mice administered Scopolamine singly/number of mice tested 2/8; assay type: functional
Rattus norvegicus [13] = assay: No. rats showing anticonflict activity after oral administration of a dose of 5 mg/kg; Number of rats which received shocks more than twice vs shocks received in control rats to that of number of rats tested 3/10; assay type: functional
Mus musculus [14] = assay: No. rats showing anticonflict activity after oral administration of a dose of 20 mg/kg; Number of mice which prolonged latency more than twice the duration of mice administered Scopolamine singly/number of mice tested 4/8; assay type: functional
Rattus norvegicus [15] = assay: No. rats showing anticonflict activity after oral administration of a dose of 40 mg/kg; Number of rats which received shocks more than twice vs shocks received in control rats to that of number of rats tested 8/10; assay type: functional
Rattus norvegicus [16] = assay: No. rats showing anticonflict activity after oral administration of a dose of 40 mg/kg; Number of rats which received shocks more than twice vs shocks received in control rats to that of number of rats tested 6/9; assay type: functional
[17] = target: T1, 5-hydroxytryptamine receptor 1A (Rattus norvegicus, UniProt P19327); assay: Binding affinity towards 5-hydroxytryptamine 1A receptor in rat brain; assay type: tissue-based
T1 sequence (P19327 whole entry): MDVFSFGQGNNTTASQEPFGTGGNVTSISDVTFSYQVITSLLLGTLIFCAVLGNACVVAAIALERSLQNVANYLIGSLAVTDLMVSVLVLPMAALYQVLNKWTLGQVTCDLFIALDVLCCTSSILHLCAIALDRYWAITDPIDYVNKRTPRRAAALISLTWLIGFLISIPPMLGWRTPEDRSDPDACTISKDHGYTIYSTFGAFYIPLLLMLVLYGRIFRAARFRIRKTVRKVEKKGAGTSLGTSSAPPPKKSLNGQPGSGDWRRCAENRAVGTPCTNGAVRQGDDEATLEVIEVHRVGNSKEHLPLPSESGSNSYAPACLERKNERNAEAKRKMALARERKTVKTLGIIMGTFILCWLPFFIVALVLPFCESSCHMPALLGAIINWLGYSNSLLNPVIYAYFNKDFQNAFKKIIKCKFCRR

Mus musculus [18] = assay: […] activity after oral administration of a dose of 5 mg/kg; Number of mice which prolonged latency more than twice the duration of mice administered Scopolamine singly/number of mice tested 1/8; assay type: functional
Mus musculus [19] = assay: No. rats showing anticonflict activity after oral administration of a dose of 20 mg/kg; Number of mice which prolonged latency more than twice the duration of mice administered Scopolamine singly/number of mice tested 3/8; assay type: functional
Rattus norvegicus [20] = assay: No. rats showing anticonflict activity after oral administration of a dose of 20 mg/kg; Number of rats which received shocks more than twice vs shocks received in control rats to that of number of rats tested 5/10; assay type: functional
Mus musculus [21] = species on record: Mus musculus; assay: Lessening of memory impairment by the compound was measured in mice.; assay type: functional
Mus musculus [22] = assay: No. of mice showing anti-amnesic activity after oral administration of a dose of 40 mg/kg; Number of mice which prolonged latency more than twice the duration of mice administered Scopolamine singly/number of mice tested 6/8; assay type: functional
Rattus norvegicus [23] = assay: No of shocks of 5 min was reported after oral administration of a dose of 20 mg/kg; assay type: functional
Mus musculus [24] = assay: Latency step was determined after oral administration of a dose of 40 mg/kg in 8 mice.; assay type: functional
Rattus norvegicus [25] = assay: No of shocks of 5 min was reported after oral administration of a dose of 40 mg/kg; assay type: functional
Mus musculus [26] = assay: No. of mice showing anti-amnesic activity after oral administration of a dose of 5 mg/kg; Number of mice which prolonged latency more than twice the duration of mice administered Scopolamine singly/number of mice tested 4/8; assay type: functional
Rattus norvegicus [27] = assay: No. rats showing anticonflict activity after oral administration of a dose of 40 mg/kg; Number of rats which received shocks more than twice vs shocks received in control rats to that of number of rats tested 4/7; assay type: functional
Rattus norvegicus [28] = assay: No. rats showing anticonflict activity after oral administration of a dose of 20 mg/kg; Number of rats which received shocks more than twice vs shocks received in control rats to that of number of rats tested 2/8; assay type: functional
Mus musculus [29] = assay: Latency step was determined after oral administration of a dose of 20 mg/kg in 8 mice.; assay type: functional
Mus musculus [30] = assay: No. of mice showing anti-amnesic activity after oral administration of a dose of 20 mg/kg; Number of mice which prolonged latency more than twice the duration of mice administered Scopolamine singly/number of mice tested 4/8; assay type: functional
Rattus norvegicus [31] = assay: No. rats showing anticonflict activity after oral administration of a dose of 10 mg/kg; Number of rats which received shocks more than twice vs shocks received in control rats to that of number of rats tested 25/43; assay type: functional
Mus musculus [32] = assay: […] activity after oral administration of a dose of 5 mg/kg in mice; Number of mice which prolonged latency more than twice the duration of mice administered Scopolamine singly/number of mice tested 1/10; assay type: functional
Rattus norvegicus [33] = assay: No of shocks of 5 min was reported after oral administration of a dose of 5 mg/kg in 43 rats; 25/43; assay type: functional
Rattus norvegicus [34] = assay: Anticonflict activity was measured in male wistar rats; number of shocks received in 5 min at a dose of 3 mg/kg ip; assay type: functional; conditions: route intraperitoneal

| SMILES | Activity (Rattus norvegicus [4]) | Activity (Mus musculus [11]) | also measured |
| --- | --- | --- | --- |
| CCOC(=O)C1Cc2c(sc3ccccc23)CN1 (centres undefined) | 27.2 | 90.5 | No. of shocks (Rattus norvegicus [1]): 29.3; No. of shocks (Rattus norvegicus [2]): 30.2; Anticonflict activity (Rattus norvegicus [3]): 6; Activity (Mus musculus [5]): 129.9; IC50 [6]: 1.5 mM; Activity (Mus musculus [7]): 68.8; Activity (Mus musculus [8]): 110.1; No. of shocks (Rattus norvegicus [9]): 16.1; Antiamnesic activity (Mus musculus [10]): 6; Antiamnesic activity (Mus musculus [12]): 2; Anticonflict activity (Rattus norvegicus [13]): 3; Antiamnesic activity (Mus musculus [14]): 4; Anticonflict activity (Rattus norvegicus [15]): 8 |
| CCNC(=O)c1cc2c(cn1)sc1ccccc12 | 8.5 | 36.3 |  |
| O=C(O)c1cc2c(cn1)sc1ccccc12 | 4 | 55.8 |  |
| O=C(c1cc2c(cn1)sc1ccccc12)N1CCCCC1 | 5 | 60.2 |  |
| COC(=O)c1cc2c(cn1)sc1ccccc12 | 8.5 | 31.6 |  |
| CCOC(=O)C1Cc2c(sc3ccccc23)CN1C (centres undefined) | 22 | 32.9 |  |
| CCCOC(=O)c1cc2c(cn1)sc1ccccc12 | 9.6 | 22.1 | IC50 [6]: 1.53 mM |
| CCCCCCNC(=O)c1cc2c(cn1)sc1ccccc12 | 10.5 | 62.3 |  |
| CNC(=O)c1cc2c(cn1)sc1ccccc12 | 8.4 | 28.6 |  |
| CCCNC(=O)c1cc2c(cn1)sc1ccccc12 | 17.3 | 42 |  |
| NNC(=O)c1cc2c(cn1)sc1ccccc12 | 11.2 | 20.4 |  |
| O=C(c1cc2c(cn1)sc1ccccc12)N1CCOCC1 | 8.2 | 52.9 |  |
| O=C(NC1CCCCC1)C1Cc2c(sc3ccccc23)CN1 (centres undefined) | 36.9 | 120.4 | No. of shocks (Rattus norvegicus [1]): 28.1; No. of shocks (Rattus norvegicus [2]): 26.9; Anticonflict activity (Rattus norvegicus [16]): 6; IC50 [6]: 1.6 mM; Activity (Mus musculus [7]): 67.5; Activity (Mus musculus [8]): 85; Ki [17]: 0.00028 mM; Antiamnesic activity (Mus musculus [18]): 1; No. of shocks (Rattus norvegicus [9]): 15.5; Antiamnesic activity (Mus musculus [19]): 3; Anticonflict activity (Rattus norvegicus [13]): 3; Anticonflict activity (Rattus norvegicus [20]): 5 |
| CCCOC(=O)C1Cc2c(sc3ccccc23)CN1 (centres undefined) | 14.5 | 57.2 |  |
| NC(=O)c1cc2c(cn1)sc1ccccc12 | 17 | 24.7 | IC50 [6]: 1.56 mM |
| CCOC(=O)C1Cc2c(sc3ccccc23)CN1C(=O)c1ccccc1Cl (centres undefined) | 2.5 | 28.1 |  |
| CCOC(=O)C1Cc2c(sc3ccccc23)CN1C(=O)c1ccccc1 (centres undefined) | 6.3 | 35.1 |  |
| COC(=O)CCCNC(=O)c1cc2c(cn1)sc1ccccc12 | 9.9 |  |  |

| SMILES | Activity (Rattus norvegicus [4]) | Activity (Mus musculus [11]) | also measured |
| --- | --- | --- | --- |
| CCOC(=O)C1Cc2c(sc3ccccc23)CN1C(C)=O (centres undefined) |  | 37.3 |  |
| CC1CCCC(C)N1C(=O)c1cc2c(cn1)sc1ccccc12 (centres undefined) | 4.5 |  |  |
| COC(=O)C1Cc2c(sc3ccccc23)CN1 (centres undefined) | 17.9 |  | Activity (Mus musculus [21]): 64.5 |
| CC(=O)N1CCCN(C(=O)c2cc3c(cn2)sc2ccccc23)CC1.Cl | 22.2 | 55 |  |
| Cl.O=C(c1cc2c(cn1)sc1ccccc12)N1CCCNCC1 | 21.8 | 38.9 |  |
| Cl.NCCCNC(=O)c1cc2c(cn1)sc1ccccc12 | 15.2 | 37.7 |  |
| Cl.O=C(c1cc2c(cn1)sc1ccccc12)N1CCNCC1 | 17.8 | 40.7 |  |
| Cl.NCCCC(=O)N1CCCN(C(=O)c2cc3c(cn2)sc2ccccc23)CC1 |  | 51.9 |  |
| CN1CCN(C(=O)c2cc3c(cn2)sc2ccccc23)CC1.Cl | 3.3 | 44.2 |  |
| CN(C)CCNC(=O)c1cc2c(cn1)sc1ccccc12.Cl | 9.6 | 64.5 |  |
| Cl.O=C(c1cc2c(cn1)sc1ccccc12)N1CCCN(Cc2ccc(Cl)cc2)CC1 | 12.8 | 34.7 |  |
| Cl.NCCNC(=O)c1cc2c(cn1)sc1ccccc12 | 37.2 | 103.9 | Antiamnesic activity (Mus musculus [22]): 6; No. of shocks (Rattus norvegicus [23]): 9.3; Activity (Mus musculus [24]): 125.1; No. of shocks (Rattus norvegicus [25]): 22; Activity (Mus musculus [7]): 65.5; Antiamnesic activity (Mus musculus [26]): 4; Anticonflict activity (Rattus norvegicus [27]): 4; Anticonflict activity (Rattus norvegicus [28]): 2; Activity (Mus musculus [29]): 106.7; Antiamnesic activity (Mus musculus [30]): 4 |
| CN1CCCN(C(=O)c2cc3c(cn2)sc2ccccc23)CC1.Cl | 3.5 | 40.3 |  |
| CC1CN(C(=O)c2cc3c(cn2)sc2ccccc23)CCN1.Cl (centres undefined) | 7.6 | 40.3 |  |
| Cl.NCC(=O)N1CCCN(C(=O)c2cc3c(cn2)sc2ccccc23)CC1 | 14.1 |  |  |
| CCOC(=O)c1cc2c(cn1)sc1ccccc12 | 10.7 | 11.3 |  |
| CN1C(=O)CN=C(c2ccccc2)c2cc(Cl)ccc21 [DIAZEPAM] |  |  | Anticonflict activity (Rattus norvegicus [31]): 25; Antiamnesic activity (Mus musculus [32]): 1; No. of shocks (Rattus norvegicus [33]): 22.7; Activity (Rattus norvegicus [34]): 39.4 |
